# ChEMBL document CHEMBL1240356, “Efficacy profiles of daptomycin for treatment of invasive and noninvasive pulmonary infections with Streptococcus pneumoniae” (2010)
# Calls of active or inactive are those of the source. No cut-off for these calls is given here.
# Legend:
# Streptococcus pneumoniae [1] = assay: Antibacterial activity against 5 x 10^6 CFU Streptococcus pneumoniae serotype 2 infected in semitherapeutic C57BL/6 mouse model assessed as bacterial count in liver at 6 mg/kg, ip measured after 1 day post infection; format: functional; conditions: route intraperitoneal
# Streptococcus pneumoniae [2] = assay: Antibacterial activity against high dose 1.5 x 10^7 CFU Streptococcus pneumoniae serotype 19 infected in semitherapeutic C57BL/6 mouse model assessed as bacterial count in lung at 6 mg/kg, ip measured after 3 days post infection; format: functional; conditions: route intraperitoneal
# Streptococcus pneumoniae [3] = assay: Antibacterial activity against high dose 1.5 x 10^7 CFU Streptococcus pneumoniae serotype 2 infected in therapeutic C57BL/6 mouse model assessed as bacterial count in blood at 6 mg/kg, ip measured after 4 days post infection; format: functional; conditions: route intraperitoneal
# Streptococcus pneumoniae [4] = assay: Antibacterial activity against high dose 1.5 x 10^7 CFU Streptococcus pneumoniae serotype 2 infected in semitherapeutic C57BL/6 mouse model assessed as bacterial count in liver at 6 mg/kg, ip measured after 1 day post infection; format: functional; conditions: route intraperitoneal
# Streptococcus pneumoniae [5] = assay: Antibacterial activity against 5 x 10^6 CFU Streptococcus pneumoniae serotype 2 infected in semitherapeutic C57BL/6 mouse model assessed as bacterial count in spleen at 6 mg/kg, ip measured after 1 day post infection; format: functional; conditions: route intraperitoneal
# Streptococcus pneumoniae [6] = assay: Antibacterial activity against low dose 5 x 10^6 CFU Streptococcus pneumoniae serotype 2 infected in semitherapeutic C57BL/6 mouse model assessed as reduction of bacteremia at 6 mg/kg, ip measured after 10 day post infection; format: functional, organism-based; design: dose 6 mg/kg
# Streptococcus pneumoniae [7] = assay: Antibacterial activity against 1.5 x 10^7 CFU Streptococcus pneumoniae serotype 2 infected in therapeutic C57BL/6 mouse model assessed as survival rate at 20 mg/kg, ip qd beginning 2 days post infection measured after 3 days post infection; format: functional; conditions: route intraperitoneal
# Streptococcus pneumoniae [8] = assay: Antibacterial activity against low dose 5 x 10^6 CFU Streptococcus pneumoniae serotype 19 infected in semitherapeutic C57BL/6 mouse model assessed as bacteremic mouse at 6 mg/kg, ip measured after 3 days post infection; format: functional, organism-based; design: dose 6 mg/kg
# Streptococcus pneumoniae [9] = assay: Antibacterial activity against low dose 5 x 10^6 CFU Streptococcus pneumoniae serotype 2 infected in semitherapeutic C57BL/6 mouse model assessed as bacterial count in lung at 6 mg/kg, ip measured after 10 day post infection; format: functional; conditions: route intraperitoneal
# Streptococcus pneumoniae [10] = assay: Antibacterial activity against high dose 1.5 x 10^7 CFU Streptococcus pneumoniae serotype 19 infected in semitherapeutic C57BL/6 mouse model assessed as reduction of bacteremia at 6 mg/kg, ip measured after 3 days post infection; format: functional, organism-based; design: dose 6 mg/kg
# Streptococcus pneumoniae [11] = assay: Antibacterial activity against high dose 1.5 x 10^7 CFU Streptococcus pneumoniae serotype 2 infected in semitherapeutic C57BL/6 mouse model assessed as bacterial count in blood at 6 mg/kg, ip measured after 1 day post infection; format: functional; conditions: route intraperitoneal
# Streptococcus pneumoniae [12] = assay: Antibacterial activity against high dose 1.5 x 10^7 CFU Streptococcus pneumoniae serotype 2 infected in semitherapeutic C57BL/6 mouse model assessed as bacterial count in spleen at 6 mg/kg, ip measured after 1 day post infection; format: functional; conditions: route intraperitoneal
# Streptococcus pneumoniae [13] = assay: Antibacterial activity against 1.5 x 10^7 CFU Streptococcus pneumoniae serotype 2 infected in therapeutic C57BL/6 mouse model assessed as increase in serum compound level at 6 mg/kg, ip measured on day 3 post infection; format: functional, organism-based; design: dose 6 mg/kg
# Streptococcus pneumoniae [14] = assay: Antibacterial activity against low dose 5 x 10^6 CFU Streptococcus pneumoniae serotype 19 infected in semitherapeutic C57BL/6 mouse model assessed as bacteremic mouse at 6 mg/kg, ip measured after 1 day post infection; format: functional, organism-based; design: dose 6 mg/kg
# Streptococcus pneumoniae [15] = assay: Antibacterial activity against high dose 1.5 x 10^7 CFU Streptococcus pneumoniae serotype 19 infected in semitherapeutic C57BL/6 mouse model assessed as reduction of bacteremia at 6 mg/kg, ip measured after 2 days post infection; format: functional, organism-based; design: dose 6 mg/kg
# Streptococcus pneumoniae [16] = assay: Antibacterial activity against low dose 5 x 10^6 CFU Streptococcus pneumoniae serotype 19 infected in semitherapeutic C57BL/6 mouse model assessed as bacteremic mouse at 6 mg/kg, ip measured after 5 day post infection; format: functional, organism-based; design: dose 6 mg/kg
# Streptococcus pneumoniae [17] = assay: Antibacterial activity against high dose 1.5 x 10^7 CFU Streptococcus pneumoniae serotype 2 infected in therapeutic C57BL/6 mouse model assessed as bacterial count in lung at 6 mg/kg, ip measured after 4 days post infection; format: functional; conditions: route intraperitoneal
# Streptococcus pneumoniae [18] = assay: Antibacterial activity against high dose 1.5 x 10^7 CFU Streptococcus pneumoniae serotype 19 infected in semitherapeutic C57BL/6 mouse model assessed as bacterial count in lung at 6 mg/kg, ip measured after 1 day post infection; format: functional; conditions: route intraperitoneal
# Streptococcus pneumoniae [19] = assay: Antibacterial activity against high dose 1.5 x 10^7 CFU Streptococcus pneumoniae serotype 2 infected in semitherapeutic C57BL/6 mouse model assessed as bacterial count in lung at 6 mg/kg, ip measured after 3 days post infection; format: functional; conditions: route intraperitoneal
# Streptococcus pneumoniae [20] = assay: Antibacterial activity against 1.5 x 10^7 CFU Streptococcus pneumoniae serotype 2 infected in therapeutic C57BL/6 mouse model assessed as effect on lung permeability at 6 mg/kg, ip measured on day 3 post infection; format: functional, organism-based; design: dose 6 mg/kg
# Streptococcus pneumoniae [21] = assay: Antibacterial activity against high dose 1.5 x 10^7 CFU Streptococcus pneumoniae serotype 2 infected in semitherapeutic C57BL/6 mouse model assessed as bacterial count in lung at 6 mg/kg, ip measured after 10 day post infection; format: functional; conditions: route intraperitoneal
# Streptococcus pneumoniae [22] = assay: Antibacterial activity against low dose 5 x 10^6 CFU Streptococcus pneumoniae serotype 19 infected in semitherapeutic C57BL/6 mouse model assessed as bacterial count in lung at 6 mg/kg, ip measured after 3 days post infection; format: functional; conditions: route intraperitoneal
# Streptococcus pneumoniae [23] = assay: Antibacterial activity against low dose 5 x 10^6 CFU Streptococcus pneumoniae serotype 2 infected in semitherapeutic C57BL/6 mouse model at 6 mg/kg, ip over a period of 14 days; format: functional, organism-based; design: dose 6 mg/kg
# Streptococcus pneumoniae [24] = assay: Antibacterial activity against 5 x 10^6 CFU Streptococcus pneumoniae serotype 2 infected in semitherapeutic C57BL/6 mouse model assessed as reduction of bacteremia at 6 mg/kg, ip measured after 2 days post infection; format: functional, organism-based; design: dose 6 mg/kg
# Streptococcus pneumoniae [25] = assay: Antibacterial activity against high dose 1.5 x 10^7 CFU Streptococcus pneumoniae serotype 2 infected in semitherapeutic C57BL/6 mouse model assessed as reduction of bacteremia at 6 mg/kg, ip measured after 10 day post infection; format: functional, organism-based; design: dose 6 mg/kg
# Streptococcus pneumoniae [26] = assay: Antibacterial activity against high dose 1.5 x 10^7 CFU Streptococcus pneumoniae serotype 2 infected in therapeutic C57BL/6 mouse model assessed as bacterial count in lung at 6 mg/kg, ip measured after 5 day post infection; format: functional; conditions: route intraperitoneal
# Streptococcus pneumoniae [27] = assay: Antibacterial activity against high dose 1.5 x 10^7 CFU Streptococcus pneumoniae serotype 2 infected in semitherapeutic C57BL/6 mouse model assessed as bacterial count in lung at 6 mg/kg, ip measured after 1 day post infection; format: functional; conditions: route intraperitoneal
# Streptococcus pneumoniae [28] = assay: Antibacterial activity against 5 x 10^6 CFU Streptococcus pneumoniae serotype 2 infected in semitherapeutic C57BL/6 mouse model assessed as bacterial count in lung at 6 mg/kg, ip measured after 3 days post infection; format: functional; conditions: route intraperitoneal
# Streptococcus pneumoniae [29] = assay: Antibacterial activity against high dose 1.5 x 10^7 CFU Streptococcus pneumoniae serotype 19 infected in semitherapeutic C57BL/6 mouse model assessed as bacterial count in lung at 6 mg/kg, ip measured after 2 days post infection; format: functional; conditions: route intraperitoneal
# Streptococcus pneumoniae [30] = assay: Antibacterial activity against low dose 5 x 10^6 CFU Streptococcus pneumoniae serotype 2 infected in semitherapeutic C57BL/6 mouse model assessed as reduction of bacteremia at 6 mg/kg, ip measured after 3 dayss post infection; format: functional, organism-based; design: dose 6 mg/kg
compound,measurement,setting,value
CCCCCCCCCC(=O)N[C@@H](Cc1c[nH]c2ccccc12)C(=O)N[C@H](CC(N)=O)C(=O)N[C@@H](CC(=O)O)C(=O)N[C@@H]1C(=O)NCC(=O)N[C@@H](CCCN)C(=O)N[C@@H](CC(=O)O)C(=O)N[C@H](C)C(=O)N[C@@H](CC(=O)O)C(=O)NCC(=O)N[C@H](CO)C(=O)N[C@@H]([C@H](C)CC(=O)O)C(=O)N[C@@H](CC(=O)c2ccccc2N)C(=O)O[C@@H]1C,log10cfu,Streptococcus pneumoniae [1],1.8
same,log10cfu,Streptococcus pneumoniae [2],7.1
same,log10cfu,Streptococcus pneumoniae [3],2.6
same,log10cfu,Streptococcus pneumoniae [4],1.2
same,log10cfu,Streptococcus pneumoniae [5],2.2
same,Activity,Streptococcus pneumoniae [6],Active
same,Activity,Streptococcus pneumoniae [7],60%
same,Activity,Streptococcus pneumoniae [8],Active
same,log10cfu,Streptococcus pneumoniae [9],2.5
same,Activity,Streptococcus pneumoniae [10],Active
same,log10cfu,Streptococcus pneumoniae [11],2.6
same,log10cfu,Streptococcus pneumoniae [12],1.4
same,Activity,Streptococcus pneumoniae [13],Active
same,Activity,Streptococcus pneumoniae [14],Active
same,Activity,Streptococcus pneumoniae [15],Active
same,Activity,Streptococcus pneumoniae [16],Active
same,log10cfu,Streptococcus pneumoniae [17],2.9
same,log10cfu,Streptococcus pneumoniae [18],6.4
same,log10cfu,Streptococcus pneumoniae [19],3.5
same,Activity,Streptococcus pneumoniae [20],Active
same,log10cfu,Streptococcus pneumoniae [21],2.9
same,log10cfu,Streptococcus pneumoniae [22],5.5
same,Activity,Streptococcus pneumoniae [23],Active
same,Activity,Streptococcus pneumoniae [24],Active
same,Activity,Streptococcus pneumoniae [25],Active
same,log10cfu,Streptococcus pneumoniae [26],2.8
same,log10cfu,Streptococcus pneumoniae [27],6
same,log10cfu,Streptococcus pneumoniae [28],3.8
same,log10cfu,Streptococcus pneumoniae [29],6.2
same,Activity,Streptococcus pneumoniae [30],Active
